Each structure is given as a SMILES string.

Common to all, as to type: cell-based
Assay [1] has as its system human hepatic cancer cells, Hep 3B. The assay is described as follows: In vitro Lovastatin add-on study (MTT), Hep 3B. Conditions: Homo sapiens, Hep3B, 0.0043 μg/ml Lovastatin + formula 2. The procedure:
(§1) The experiment was also carried out according to NCI anti-cancer drug screen in vitro model. The human hepatic cancer cells, Hep 3B and Hep G2 and MDA-MB-231 were separately cultivated in media containing fetal calf serum for 24 hours. The proliferated cells were washed once with PBS, then treated with 1× trypsin-EDTA and centrifuged at 1200 rpm for 5 minutes. The supernatant was discarded and the cell pellet was resuspended in 10 ml of fresh culture medium by gently shaking. The Hep 3B cells were treated with 0.0043 μg/ml of Lovastatin for 72 hours and Hep G2 cells were treated with 0.0017 μg/ml of Taxol for 72 hours before placing in a 96-well plate. 4-hydroxy-2,3-dimethoxy-6-methyl-5(3,7,11-trimethyl-dodeca-2,6,10-trienyl)-cyclohex-2-enone obtained from example 1 were added respectively into each of the 96 wells at the following concentrations: 0 μg/ml (the control group); 30, 10, 3, 1, 0.3, 0.1 and 0.03 μg/ml (the experiment group). The cells were incubated at 37° C. in a 5% CO2 incubator for 48 hours. MTT was added in a concentration of 2.5 mg/ml into each well in dark and reacted for 4 hours, followed by the addition of 100 μl of lysis buffer to stop the reaction. The plates were read on an ELISA reader at wavelength of 570 nm to determine the survival rates.

For assay [2], the system named is human hepatic cancer cells, Hep G2. As to the kind of experiment: In vitro Taxol add-on study (MTT), Hep G2. Conditions: Homo sapiens, HepG2, 0.0017 μg/ml Taxol + formula 2. The procedure:
as §1

Assay [3] relates to human prostate cancer cells, LNCaP. As to the kind of experiment: In vitro Taxol add-on study (MTT), prostate cancer cells LNCaP. Conditions: Homo sapiens; LNCaP (0.0017 μg/ml Taxol + formula 2) as printed in Table 6. The procedure:
as §1, with “human prostate” for “human hepatic”, “cells, LNCaP” for “cells, Hep 3B”, “and DU-145” for “and Hep G2 and MDA-MB-231”, “The LNCaP cells were treated with 0.0017 μg/ml of Taxol for 72 hours and DU-145” for “The Hep 3B”, “0.0043” for “0.0043 μg/ml of Lovastatin for 72 hours and Hep G2 cells were treated with 0.0017”

What is called IC50 is the midpoint of a concentration-inhibition curve. `COC1=C(OC)C(O)C(C/C=C(\C)CC/C=C(\C)CCC=C(C)C)C(C)C1=O` (stereo not drawn) [formula 2, 4-hydroxy-2,3-dimethoxy-6-methyl-5(3,7,11-trimethyl-dodeca-2,6,10-trienyl)-cyclohex-2-enone]: the IC50 in assay [1] was found to be 2 ng/mL; in assay [2], 8 ng/mL; in assay [3] it was 961 ng/mL.

Source of the values: patent US7342137B1, “Cyclohexenone compounds from Antrodia camphorata and application thereof” (Golden Biotechnology Corporation, priority 2007, dated 2008).
